Test results: patent publication US10646596B2, “Near-infrared dye-bound transferrin, and contrast agent for photoacoustic imaging, including the near-infrared dye-bound transferrin” (CANON KABUSHIKI KAISHA, priority 2015, dated 2020)

Legend:
[1] = tested on: colon 26 mouse colon cancer cells (subcutaneous tumor); experiment: Tumor accumulation property (amount of dye in tumor) in cancer-bearing mouse; format: in vivo; conditions: 24 hours after administration; for Tumor/blood ratio: tumor accumulation / residual rate in blood
Excerpt: (§1) The amount of the dye in a tumor and the amount of the dye in blood with respect to each mouse in the tumor-imaging experiment performed in Example 4 were quantitatively determined to thereby evaluate the tumor accumulation property and the residual rate in blood of each compound.
(§2) The tumor accumulation property was expressed as the rate of dye transfer (% ID/g) to a tumor relative to the amount of the dye to be administered per gram of the tumor. First, the mouse was euthanized by a carbon dioxide gas after 24 hours of administration, and thereafter the tumor was surgically resected. The tumor was transferred to a plastic tube, an aqueous 1% Triton-X100 solution was added at 1.25 times the weight of the tumor, and the tumor was crushed using a plastic pestle. Next, DMSO was added at 20.25 times the weight of the tumor tissue. The fluorescence intensity of the solution of the tumor crushed, treated as described above, was measured in the plastic tube using IVIS (registered trademark) Imaging System 200 Series (XENOGEN) to thereby measure the amount of the dye in the tumor.
(§3) The tumor/blood ratio was calculated by the above measurements. The ratio corresponds to the ratio of the tumor accumulation property to the residual rate in blood, and a higher ratio means a higher tumor-imaging ability.

[2] = Residual rate in blood (amount of dye in blood) in cancer-bearing mouse; format: in vivo; conditions: 24 hours after administration, tail vein blood
Protocol: as §1
The residual rate in blood was expressed as the rate of dye transfer (% ID/g) to blood relative to the amount of the dye to be administered per gram of blood (1 mL when the specific gravity was assumed to be 1). A blood sample was taken from the tail vein of the mouse after 24 hours of administration, and the blood sample, 1% Triton (registered trademark) X-100 and DMSO were mixed in the plastic tube in a ratio of 2:9:9. The fluorescence intensity of the blood solution treated as described above was measured in the plastic tube using IVIS (registered trademark) Imaging System 200 Series (manufactured by XENOGEN) to thereby measure the amount of the dye in blood.

[3] = tested on: colon 26 mouse colon cancer cells (subcutaneous tumor); experiment: Evaluation of tumor-imaging contrast by fluorescence imaging in cancer-bearing mouse; format: in vivo; conditions: for fluorescent signal from the tumor site in fluorescence image: 24 hours after administration, FIGURE; for Imaging contrast (fluorescence intensity of tumor site / normal site): 24 hours after tail vein administration, 10 nmol dye per mouse (Alexa Fluor 680-TF (2.0): 31 nmol)
Excerpt: In the fluorescence imaging experiment, a female outbred BALB/c Slc-nu/nu mouse (6-week-old at the time of purchase) (Japan SLC, Inc.) was used. For one week before the mouse was allowed to bear a cancer, normal diet and bed were used to habituate the mouse to an environment where the diet and drinking water were available ad libitum. Before about one week of the imaging experiment, 1×10^6 colon 26 mouse colon cancer cells (RIKEN) were subcutaneously injected into the femur area of the mouse to thereby prepare a cancer-bearing model mouse.
In order to evaluate the tumor-imaging contrast, the fluorescence intensity of a tumor site (measured area: 0.5×0.5 cm) and the fluorescence intensity (selected as a normal site, measured area: 0.5×0.5 cm) of the base of a leg were quantified from the fluorescence imaging data illustrated in FIGURE. The ratio of the intensities, namely, the value obtained by dividing the value of the fluorescence intensity of a tumor site by the value of the fluorescence intensity of a normal site, was expressed by a numeral value as an imaging contrast. […] A larger imaging contrast of the compound of the present invention than the imaging contrast of Alexa Fluor 680-TF (2.0) is considered to be due to the difference in tumor accumulation property, as described later. The number of the dye(s) labeled at which the highest imaging contrast was achieved was 4.8. On the other hand, when the number of the dye(s) labeled exceeded 8, a tendency of the imaging contrast to be reduced was observed.

[4] = Tumor accumulation property (amount of dye in tumor) in cancer-bearing mouse; format: in vivo; conditions: mouse, 24 hours after administration
Excerpt: as §1, §2, §3

[5] = in vivo; cited from earlier work

Compound	Tumor/blood ratio [1]	Residual rate in blood [2] [% ID/g]	fluorescent signal from the tumor site in fluorescence image [3]	Imaging contrast (fluorescence intensity of tumor site / normal site) [3]	Rate of tumor accumulation [1]	tissue uptake at 24 h ([4]; tumor, read-out: Rate of tumor accumulation) [%ID/g]	Kp at 24 h ([4]; tumor accumulation / residual rate in blood, read-out: Tumor/blood ratio)	half-life in blood [5]	tissue uptake at 24 h ([2]; mouse, whole blood) [%ID/g]
iTF (4.8): Human transferrin covalently bound to ICG-Sulfo-OSu near-infrared dye; number of dye(s) labeled 4.8	3.3	2.1	the fluorescent signal from the tumor site was observed	4.1					
iTF (2.0): Human transferrin covalently bound to ICG-Sulfo-OSu near-infrared dye; number of dye(s) labeled 2.0	0.7	2.8	the fluorescent signal from the tumor site was observed	3.3					
iTF (8.3): Human transferrin covalently bound to ICG-Sulfo-OSu near-infrared dye; number of dye(s) labeled 8.3	2.9	0.7	the fluorescent signal from the tumor site was observed	3.3					
iTF (7.0): Human transferrin covalently bound to ICG-Sulfo-OSu near-infrared dye; number of dye(s) labeled 7.0		1.8	the fluorescent signal from the tumor site was observed	3.4					
Alexa Fluor 680-TF (2.0): Transferrin From Human Serum, Alexa Fluor 680 Conjugate, Life Technologies, Product No. T35357, number of dye(s) labeled 2.0 [reference compound]	0.2	2.8		1.2	0.6 % ID/g				
iTF (8.4): Human transferrin covalently bound to ICG-Sulfo-OSu near-infrared dye; number of dye(s) labeled 8.4	1.9	0.4	the fluorescent signal from the tumor site was observed	2.3	0.8 % ID/g				
CC1(C)C(/C=C/C=C/C=C/C=C2/N(CCCCS(=O)(=O)[O-])c3ccc4ccccc4c3C2(C)C)=[N+](CCCCS(=O)(=O)[O-])c2ccc3ccccc3c21.[Na+] [ICG, indocyanine green, reference compound]			no fluorescent signal was observed	1.2	zero	0	0.1	about several minutes	0.1
